Values after ≈ are worked out from the molar mass of the structure shown.
Legend:
Format in all cases: functional
Aspergillus fumigatus = test: Antifungal activity against Aspergillus fumigatus after 48 hrs by serial dilution method
Candida parapsilosis = test: Antifungal activity against Candida parapsilosis ATCC 22019 after 24 hrs by serial dilution method; conditions: Lodderomyces parapsilosis, ATCC 22019, 24 h
Cryptococcus neoformans = test: Antifungal activity against Cryptococcus neoformans after 72 hrs by serial dilution method
Candida albicans [1] = test: Antifungal activity against Candida albicans SC5314 after 24 hrs by serial dilution method; conditions: SC5314, 24 h
Candida albicans [2] = test: Antifungal activity against Candida albicans Y0109 after 24 hrs by serial dilution method; conditions: Y0109, 24 h
Nakaseomyces glabratus = test: Antifungal activity against Candida glabrata after 24 hrs by serial dilution method
Trichophyton rubrum = test: Antifungal activity against Trichophyton rubrum by serial dilution method
Nannizzia gypsea = test: Antifungal activity against Microsporum gypseum by serial dilution method

Row | Structure (SMILES) | MIC80 (Aspergillus fumigatus) | MIC80 (Candida parapsilosis) | MIC80 (Cryptococcus neoformans) | MIC80 (Candida albicans [1]) | MIC80 (Candida albicans [2]) | MIC80 (Nakaseomyces glabratus) | MIC80 (Trichophyton rubrum) | MIC80 (Nannizzia gypsea)
1 | CS(=O)(=O)CCn1ncn(-c2ccc(C(F)(F)C(O)(Cn3cnnn3)c3ccc(F)cc3F)nc2)c1=O (stereo not drawn) | > 8 µg/mL | > 8 µg/mL | > 8 µg/mL | > 8 µg/mL | > 8 µg/mL | > 8 µg/mL |  | 
2 | CCC(C)n1ncn(-c2ccc(C(F)(F)C(O)(Cn3cnnn3)c3ccc(F)cc3F)nc2)c1=O (stereo not drawn) | > 8 µg/mL | 0.25 µg/mL (≈ 0.508 µM) | 4 µg/mL (≈ 8.12 µM) | 1 µg/mL (≈ 2.03 µM) | 1 µg/mL (≈ 2.03 µM) | 2 µg/mL (≈ 4.06 µM) |  | 
3 | O=c1n(-c2ccc(C(F)(F)C(O)(Cn3cnnn3)c3ccc(F)cc3F)nc2)cnn1Cc1ccccc1 (stereo not drawn) | > 8 µg/mL | 0.25 µg/mL (≈ 0.475 µM) | 4 µg/mL (≈ 7.6 µM) | 0.5 µg/mL (≈ 0.95 µM) | 1 µg/mL (≈ 1.9 µM) | 4 µg/mL (≈ 7.6 µM) |  | 
4 | COc1ccc(Cn2ncn(-c3ccc(C(F)(F)C(O)(Cn4cnnn4)c4ccc(F)cc4F)nc3)c2=O)cc1 (stereo not drawn) | > 8 µg/mL | 0.25 µg/mL (≈ 0.449 µM) | 2 µg/mL (≈ 3.59 µM) | 0.5 µg/mL (≈ 0.899 µM) | 0.5 µg/mL (≈ 0.899 µM) | 2 µg/mL (≈ 3.59 µM) |  | 
5 | CSc1ccc(Cn2ncn(-c3ccc(C(F)(F)C(O)(Cn4cnnn4)c4ccc(F)cc4F)nc3)c2=O)cc1 (stereo not drawn) | > 64 µg/mL | 4 µg/mL (≈ 6.99 µM) | 2 µg/mL (≈ 3.49 µM) | 4 µg/mL (≈ 6.99 µM) | 4 µg/mL (≈ 6.99 µM) | 4 µg/mL (≈ 6.99 µM) |  | 
6 | CC(C)(O)Cn1ncn(-c2ccc(C(F)(F)C(O)(Cn3cnnn3)c3ccc(F)cc3F)nc2)c1=O (stereo not drawn) | > 8 µg/mL | 4 µg/mL (≈ 7.87 µM) | > 8 µg/mL | > 8 µg/mL | > 8 µg/mL | > 8 µg/mL |  | 
7 | O=c1n(-c2ccc(C(F)(F)C(O)(Cn3cnnn3)c3ccc(F)cc3F)nc2)cnn1C1CCC1 (stereo not drawn) | > 64 µg/mL | 0.5 µg/mL (≈ 1.02 µM) | 0.5 µg/mL (≈ 1.02 µM) | 1 µg/mL (≈ 2.04 µM) | 0.25 µg/mL (≈ 0.51 µM) | 1 µg/mL (≈ 2.04 µM) | 8 µg/mL (≈ 16.3 µM) | > 64 µg/mL
8 | O=c1n(-c2ccc(C(F)(F)C(O)(Cn3cnnn3)c3ccc(F)cc3F)nc2)cnn1CCC1CCCCC1 (stereo not drawn) | > 64 µg/mL | 0.5 µg/mL (≈ 0.915 µM) | 4 µg/mL (≈ 7.32 µM) | 1 µg/mL (≈ 1.83 µM) | 0.5 µg/mL (≈ 0.915 µM) | 1 µg/mL (≈ 1.83 µM) | 8 µg/mL (≈ 14.6 µM) | 4 µg/mL (≈ 7.32 µM)
9 | CC(C)C1CCC(n2ncn(-c3ccc(C(F)(F)C(O)(Cn4cnnn4)c4ccc(F)cc4F)nc3)c2=O)CC1 (stereo not drawn) | > 64 µg/mL | 16 µg/mL (≈ 28.5 µM) | 16 µg/mL (≈ 28.5 µM) | 16 µg/mL (≈ 28.5 µM) | 8 µg/mL (≈ 14.3 µM) | 16 µg/mL (≈ 28.5 µM) | 1 µg/mL (≈ 1.78 µM) | > 64 µg/mL
10 | O=c1n(-c2ccc(C(F)(F)C(O)(Cn3cnnn3)c3ccc(F)cc3F)nc2)cnn1Cc1ccccn1 (stereo not drawn) | > 64 µg/mL | 16 µg/mL (≈ 30.3 µM) | 1 µg/mL (≈ 1.9 µM) | 2 µg/mL (≈ 3.79 µM) | 4 µg/mL (≈ 7.58 µM) | 2 µg/mL (≈ 3.79 µM) |  | 
11 | O=c1n(-c2ccc(C(F)(F)C(O)(Cn3cnnn3)c3ccc(F)cc3F)nc2)cnn1C1CCCCCC1 (stereo not drawn) | > 64 µg/mL | 0.5 µg/mL (≈ 0.939 µM) | 0.5 µg/mL (≈ 0.939 µM) | 1 µg/mL (≈ 1.88 µM) | 0.5 µg/mL (≈ 0.939 µM) | 1 µg/mL (≈ 1.88 µM) |  | > 64 µg/mL
12 | O=c1n(-c2ccc(C(F)(F)C(O)(Cn3cnnn3)c3ccc(F)cc3F)nc2)cnn1CC#CCO (stereo not drawn) | > 8 µg/mL | 4 µg/mL (≈ 7.93 µM) | > 8 µg/mL | > 8 µg/mL | > 8 µg/mL | > 8 µg/mL |  | 

Next, values leading:

Row | MIC80 (Aspergillus fumigatus) | MIC80 (Candida parapsilosis) | MIC80 (Cryptococcus neoformans) | MIC80 (Candida albicans [1]) | MIC80 (Candida albicans [2]) | MIC80 (Nakaseomyces glabratus) | MIC80 (Trichophyton rubrum) | MIC80 (Nannizzia gypsea) | Structure (SMILES)
13 | > 8 µg/mL | > 8 µg/mL | > 8 µg/mL | > 8 µg/mL | > 8 µg/mL | > 8 µg/mL |  |  | CC(O)(CO)Cn1ncn(-c2ccc(C(F)(F)C(O)(Cn3cnnn3)c3ccc(F)cc3F)nc2)c1=O (stereo not drawn)
14 | > 8 µg/mL | 0.5 µg/mL (≈ 0.841 µM) | 4 µg/mL (≈ 6.73 µM) | 2 µg/mL (≈ 3.36 µM) | 1 µg/mL (≈ 1.68 µM) | 4 µg/mL (≈ 6.73 µM) |  |  | O=c1n(-c2ccc(C(F)(F)C(O)(Cn3cnnn3)c3ccc(F)cc3F)nc2)cnn1Cc1ccc(C(F)(F)F)cc1 (stereo not drawn)
15 | > 64 µg/mL | 8 µg/mL (≈ 15.2 µM) | 2 µg/mL (≈ 3.79 µM) | 8 µg/mL (≈ 15.2 µM) | 4 µg/mL (≈ 7.58 µM) | 4 µg/mL (≈ 7.58 µM) |  |  | O=c1n(-c2ccc(C(F)(F)C(O)(Cn3cnnn3)c3ccc(F)cc3F)nc2)cnn1Cc1cccnc1 (stereo not drawn)
16 | > 8 µg/mL | 0.25 µg/mL (≈ 0.51 µM) | 4 µg/mL (≈ 8.16 µM) | 0.5 µg/mL (≈ 1.02 µM) | 0.5 µg/mL (≈ 1.02 µM) | 4 µg/mL (≈ 8.16 µM) |  |  | O=c1n(-c2ccc(C(F)(F)C(O)(Cn3cnnn3)c3ccc(F)cc3F)nc2)cnn1CC1CC1 (stereo not drawn)
17 | > 64 µg/mL | 0.125 µg/mL (≈ 0.242 µM) | 1 µg/mL (≈ 1.94 µM) | 0.5 µg/mL (≈ 0.968 µM) | 0.5 µg/mL (≈ 0.968 µM) | 1 µg/mL (≈ 1.94 µM) | 2 µg/mL (≈ 3.87 µM) | 8 µg/mL (≈ 15.5 µM) | O=c1n(-c2ccc(C(F)(F)C(O)(Cn3cnnn3)c3ccc(F)cc3F)nc2)cnn1C1CC=CCC1 (stereo not drawn)
18 | > 8 µg/mL | 8 µg/mL (≈ 16.2 µM) | 8 µg/mL (≈ 16.2 µM) | > 8 µg/mL | > 8 µg/mL | > 8 µg/mL |  |  | CC(O)Cn1ncn(-c2ccc(C(F)(F)C(O)(Cn3cnnn3)c3ccc(F)cc3F)nc2)c1=O (stereo not drawn)
19 | > 8 µg/mL | 0.25 µg/mL (≈ 0.463 µM) | 2 µg/mL (≈ 3.7 µM) | 1 µg/mL (≈ 1.85 µM) | 1 µg/mL (≈ 1.85 µM) | 2 µg/mL (≈ 3.7 µM) |  |  | Cc1ccc(Cn2ncn(-c3ccc(C(F)(F)C(O)(Cn4cnnn4)c4ccc(F)cc4F)nc3)c2=O)cc1 (stereo not drawn)

Source: ChEMBL document CHEMBL4184109, “Design, synthesis, and structure-activity relationship studies of novel tetrazole antifungal agents with potent activity, broad antifungal spectrum and high selectivity” (Bioorg Med Chem Lett, 2018)
